Test results published in the NIST ThermoML archive (doi:10.1016/j.jct.2005.06.011).

What was measured:
[1] = 101 kPa, Liquid; for speed of sound: Linear variable-path acoustic interferometer
[2] = refractive index (Na D-line) (dimensionless); conditions: 101.33 kPa, Liquid
[3] = refractive index (Na D-line) (dimensionless); xn = mol fraction of the nth substance listed; conditions: 101 kPa, Liquid
[4] = xn = mol fraction of the nth substance listed; conditions: 101 kPa, Liquid; for speed of sound: Linear variable-path acoustic interferometer

CC(C)CO [2-methyl-1-propanol]
Conditions	mass density, 298.15 K [kg/m3]	mass density, 303.15 K [kg/m3]	mass density, 308.15 K [kg/m3]	refractive index, 298.15 K	refractive index, 303.15 K	refractive index, 308.15 K	speed of sound, 298.15 K [m/s]	viscosity, 298.15 K [mPa·s]	viscosity, 303.15 K [mPa·s]	viscosity, 308.15 K [mPa·s]
[1]	809.31	805.23	801.11	–	–	–	1170	3.097	2.635	2.249
[2]	–	–	–	1.3932	1.3917	1.3896	–	–	–	–

CC(C)CCO [3-methylbutan-1-ol]
Conditions	mass density, 298.15 K [kg/m3]	mass density, 303.15 K [kg/m3]	mass density, 308.15 K [kg/m3]	refractive index, 298.15 K	refractive index, 303.15 K	refractive index, 308.15 K	speed of sound, 298.15 K [m/s]	viscosity, 298.15 K [mPa·s]	viscosity, 303.15 K [mPa·s]	viscosity, 308.15 K [mPa·s]
[1]	820.17	816.28	812.34	–	–	–	1259	2.779	2.258	1.844
[2]	–	–	–	1.4056	1.4034	1.4013	–	–	–	–

CCCCO [butan-1-ol]
Conditions	mass density, 298.15 K [kg/m3]	mass density, 303.15 K [kg/m3]	mass density, 308.15 K [kg/m3]	refractive index, 298.15 K	refractive index, 303.15 K	refractive index, 308.15 K	speed of sound, 298.15 K [m/s]	viscosity, 298.15 K [mPa·s]	viscosity, 303.15 K [mPa·s]	viscosity, 308.15 K [mPa·s]
[1]	808.49	804.6	800.67	–	–	–	1268	2.587	2.254	1.988
[2]	–	–	–	1.3983	1.3959	1.394	–	–	–	–

CCO [ethanol]
Conditions	mass density, 298.15 K [kg/m3]	mass density, 303.15 K [kg/m3]	mass density, 308.15 K [kg/m3]	refractive index, 298.15 K	refractive index, 303.15 K	refractive index, 308.15 K	speed of sound, 298.15 K [m/s]	viscosity, 298.15 K [mPa·s]	viscosity, 303.15 K [mPa·s]	viscosity, 308.15 K [mPa·s]
[1]	785.66	781.34	776.99	–	–	–	1161	1.083	0.985	0.8954
[2]	–	–	–	1.3608	1.3589	1.3563	–	–	–	–

CC1CCCCC1 [methylcyclohexane]
Conditions	mass density, 298.15 K [kg/m3]	mass density, 303.15 K [kg/m3]	mass density, 308.15 K [kg/m3]	refractive index, 298.15 K	refractive index, 303.15 K	refractive index, 308.15 K	speed of sound, 298.15 K [m/s]	viscosity, 298.15 K [mPa·s]	viscosity, 303.15 K [mPa·s]	viscosity, 308.15 K [mPa·s]
[1]	764.99	760.66	756.3	–	–	–	1217	0.6757	0.631	0.5902
[2]	–	–	–	1.4217	1.4192	1.4163	–	–	–	–

CC1CCCCC1 [methylcyclohexane] + CCCO
Conditions	mass density, 298.15 K [kg/m3]	mass density, 303.15 K [kg/m3]	mass density, 308.15 K [kg/m3]	refractive index, 298.15 K	refractive index, 303.15 K	refractive index, 308.15 K	speed of sound, 298.15 K [m/s]	viscosity, 298.15 K [mPa·s]	viscosity, 303.15 K [mPa·s]	viscosity, 308.15 K [mPa·s]
[3], x1 = 0.1008	–	–	–	1.3888	1.3865	1.3841	–	–	–	–
[3], x1 = 0.2027	–	–	–	1.3934	1.391	1.3886	–	–	–	–
[3], x1 = 0.3047	–	–	–	1.3979	1.3955	1.3932	–	–	–	–
[3], x1 = 0.4039	–	–	–	1.4016	1.3994	1.3971	–	–	–	–
[3], x1 = 0.5031	–	–	–	1.4053	1.4032	1.4011	–	–	–	–
[3], x1 = 0.6008	–	–	–	1.409	1.4066	1.4043	–	–	–	–
[3], x1 = 0.6985	–	–	–	1.4127	1.4101	1.4075	–	–	–	–
[3], x1 = 0.799	–	–	–	1.4159	1.4133	1.4106	–	–	–	–
[3], x1 = 0.8995	–	–	–	1.4191	1.4164	1.4137	–	–	–	–
[3], x1 = 1	–	–	–	1.4217	1.4192	1.4163	–	–	–	–
[4], x1 = 0.1008	801.22	796.96	792.71	–	–	–	1207	1.729	1.536	1.343
[4], x1 = 0.2027	794.2	789.87	785.57	–	–	–	1208	1.471	1.317	1.162
[4], x1 = 0.3047	788.08	783.7	779.32	–	–	–	1209	1.26	1.136	1.013
[4], x1 = 0.4039	782.97	778.55	774.13	–	–	–	1210	1.102	0.9975	0.8926
[4], x1 = 0.5031	778.56	774.16	769.74	–	–	–	1212	0.9688	0.8863	0.8037
[4], x1 = 0.6008	774.91	770.45	765.97	–	–	–	1213	0.8839	0.813	0.742
[4], x1 = 0.6985	771.66	767.2	762.69	–	–	–	1214	0.7998	0.7403	0.6808
[4], x1 = 0.799	768.83	764.32	759.8	–	–	–	1215	0.7511	0.6984	0.6457
[4], x1 = 0.8995	766.39	761.95	757.5	–	–	–	1216	0.7028	0.6568	0.6107
[4], x1 = 1	764.99	760.66	756.3	–	–	–	1217	0.6757	0.631	0.5902
